pEC50, pIC50: −log10 of the molar value. Read-outs that look alike come from different tables or passages of the source.
Key:
[1] = system: HER3-ss+4aa/Gaussia Luciferase; test: Dox-Induced Her3-ss-Gluc Assay; format: cell-based; details: 24 hr Dox induction, 293FRT/TO cells, read-out: 24 hr Dox Inducible Her3(ss + 4)Gluc 293FRT/TO: Mean IC50
How it was run: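 Flp-In 293 T-REx cells, stable HER3-ss+4aa/Gaussia luciferase insert, hygromycin/blasticidin selected; plated day before; compound in DMSO/media + doxycycline; 37° C., 5% CO2.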

[2] = system: multiple myeloma cell line NCI-H929; test: H929 Cell Viability Assay; format: cell-based, human; details: Homo sapiens, NCI-H929, 48 h, NCI-H929 cells, Celltiter-Glo
How it was run: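 Cells in RPMI 1640/10% FBS; compound dilutions in DMSO/media; 48 h, 37° C, 5% CO2; CellTiter-Glo luciferase readout for viability.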

[3] = system: PD1-ss+10aa/Gaussia Luciferase; test: Dox-Induced PD1-ss-Gluc Assay; format: cell-based; details: 24 hr Dox induction, 293FRT/TO cells, read-out: 24 hr Dox Inducible PD1ssGluc 293FRT/TO: Mean IC50
How it was run: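 Compounds were added in DMSO/media with doxycycline and incubated at 37 °C, 5% CO2, on 293 T-REx cells plated one day earlier. These cells stably express, under tetracycline-regulated control, a Gaussia luciferase fused to the PD1 signal peptide plus 10 residues. Structures drawn without stereochemistry were tested as stereoisomer mixtures.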

[4] = system: multiple myeloma cell line U266B1; test: U266 Cell Viability Assay; format: cell-based, human; details: Homo sapiens, U-266, 48 h, U266B1 cells, Celltiter-Glo
How it was run: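 Luminescent ATP read-out (CellTiter-Glo) after 48 h compound exposure at 37° C., 5% CO2; cells maintained in RPMI 1640/10% FBS/2 mM glutamine/pen-strep, compounds diluted in DMSO/media.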

[5] = system: IL-2-FL/Gaussia Luciferase; test: Dox Induced IL2-FL-Gluc Assay; format: cell-based; details: for pIC50: 24 hr Dox induction, 293FRT/TO cells, read-out: 24 hr Dox Inducible IL2FLGluc 293FRT/TO: Mean IC50; for 24 hr Dox Inducible IL2FLGluc 293FRT/TO: IL2/PD1: ratio of IL2FLGluc IC50 to PD1ssGluc IC50
How it was run: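 Stable Flp-In 293 T-REx line, Tet-regulated IL-2 (aa 1-153)–Gaussia luciferase fusion; hygromycin/blasticidin selected. Plated day -1; compound + doxycycline added next day; 37° C, 5% CO2.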

[6] = system: TNFα-FL/Gaussia Luciferase; test: Dox Induced TNFα-FL-Gluc Assay; format: cell-based; details: for pIC50: 24 hr Dox induction, 293FRT/TO cells, read-out: 24 hr Dox Inducible TNFaFLGluc 293FRT/TO: Mean IC50; for 24 hr Dox Inducible TNFaFLGluc 293FRT/TO: TNF/PD1: ratio of TNFaFLGluc IC50 to PD1ssGluc IC50
How it was run: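 Cell line: stable Flp-In 293 T-REx, TNFα-FL(1-233)-Gaussia luciferase fusion, T-REx-inducible. Plated day -1; compounds in DMSO/media + doxycycline, 37 °C, 5% CO2. Undefined stereocentres = mixture tested.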

[7] = Liver Microsome Stability Assay (monkey); details: monkey liver microsomes, with NADPH, 1.0 uM compound
Protocol: (§1) Stability of a compound was assessed in the presence of liver microsomes from various sources—mouse, rat, monkey and human liver microsomes. 1.0 uM compound, 0.4% DMSO in 0.1 M Potassium Phosphate with 1.0 mg/mL liver microsomes, were incubated at 37° C. with or without 1 mM NADPH. The samples were quenched at 0, and 30 minutes.

[8] = Liver Microsome Stability Assay (mouse); details: mouse liver microsomes, with NADPH, 1.0 uM compound
Protocol: as §1

[9] = Liver Microsome Stability Assay (rat); details: rat liver microsomes, with NADPH, 1.0 uM compound
Protocol: as §1

[10] = Liver Microsome Stability Assay (human); details: human liver microsomes, with NADPH, 1.0 uM compound
Protocol: as §1

[11] = '<=>' given where both are I.A.

SMILES	pIC50 [1]	pEC50 [2]	pIC50 [3]	pEC50 [4]	pIC50 [5]	pIC50 [6]	Liver Microsome Stability (Multiple Species): Monkey - % Remaining after 30 min w/NADPH [7]	Liver Microsome Stability (Multiple Species): Mouse - % Remaining after 30 min w/NADPH [8]	Liver Microsome Stability (Multiple Species): Rat - % Remaining after 30 min w/NADPH [9]	Liver Microsome Stability (Multiple Species): Human - % Remaining after 30 min w/NADPH [10]	pIC50 ([1]; mean)	pIC50 ([3]; mean)	pIC50 ([5]; mean)	pIC50 ([6]; mean)	24 hr Dox Inducible IL2FLGluc 293FRT/TO: IL2/PD1 [5]	24 hr Dox Inducible TNFaFLGluc 293FRT/TO: TNF/PD1 [6]	24 hr Dox Inducible IL2FLGluc 293FRT/TO: IL2/PD1 [5, 11]	24 hr Dox Inducible TNFaFLGluc 293FRT/TO: TNF/PD1 [6, 11]
NC(=O)c1ccc(N2CCC[C@@H]2c2csc(NC(=O)c3cccn3Cc3ccnc(F)c3)n2)cc1 [Compound A65, (R)-N-(4-(1-(4-carbamoylphenyl)pyrrolidin-2-yl)thiazol-2-yl)-1-((2-fluoropyridin-4-yl)methyl)-1H-pyrrole-2-carboxamide]	8.19	7.09	8.68	< 4.60	8.10	7.18	0.35%	7.68%	1.1%	22.1%	–	–	–	–	3.8	31	–	–
CC(=O)Nc1ccc(N2CCC[C@@H]2c2csc(NC(=O)c3cccn3Cc3ccnc(F)c3)n2)c(F)c1 [Compound A98, (R)-N-(4-(1-(4-acetamido-2-fluorophenyl)pyrrolidin-2-yl)thiazol-2-yl)-1-((2-fluoropyridin-4-yl)methyl)-1H-pyrrole-2-carboxamide]	8.69	7.65	9.04	< 4.60	8.65	7.70	0.48%	1.29%	1.18%	2.43%	–	–	–	–	2.5	22.2	–	–
CC(=O)N1CCC(Oc2ccc(N3CCC[C@@H]3c3csc(NC(=O)c4cccn4Cc4ccnc(F)c4)n3)cc2)C(F)C1 (stereo partly drawn) [Compound A108, N-(4-((2R)-1-(4-((1-acetyl-3-fluoropiperidin-4-yl)oxy)phenyl)pyrrolidin-2-yl)thiazol-2-yl)-1-((2-fluoropyridin-4-yl)methyl)-1H-pyrrole-2-carboxamide]	7.14	5.89	7.47	< 4.60	7.15	6.55	0.49%	17%	39%	13.2%	–	–	–	–	2.1	8.39	–	–
CC(=O)N1CCC(Oc2ccc(N3CCC[C@@H]3c3csc(NC(=O)c4cccn4Cc4ccnc(F)c4)n3)cc2)C1 (stereo partly drawn) [Compound A79, N-(4-((2R)-1-(4-((1-acetylpyrrolidin-3-yl)oxy)phenyl)pyrrolidin-2-yl)thiazol-2-yl)-1-((2-fluoropyridin-4-yl)methyl)-1H-pyrrole-2-carboxamide]	7.63	6.46	7.97	< 4.60	7.53	6.77	0.78%	5.88%	37.7%	5.48%	–	–	–	–	2.8	15.9	–	–

The next lines start with results.

pIC50 [1]	pEC50 [2]	pIC50 [3]	pEC50 [4]	pIC50 [5]	pIC50 [6]	Liver Microsome Stability (Multiple Species): Monkey - % Remaining after 30 min w/NADPH [7]	Liver Microsome Stability (Multiple Species): Mouse - % Remaining after 30 min w/NADPH [8]	Liver Microsome Stability (Multiple Species): Rat - % Remaining after 30 min w/NADPH [9]	Liver Microsome Stability (Multiple Species): Human - % Remaining after 30 min w/NADPH [10]	pIC50 ([1]; mean)	pIC50 ([3]; mean)	pIC50 ([5]; mean)	pIC50 ([6]; mean)	SMILES	24 hr Dox Inducible IL2FLGluc 293FRT/TO: IL2/PD1 [5]	24 hr Dox Inducible TNFaFLGluc 293FRT/TO: TNF/PD1 [6]	24 hr Dox Inducible IL2FLGluc 293FRT/TO: IL2/PD1 [5, 11]	24 hr Dox Inducible TNFaFLGluc 293FRT/TO: TNF/PD1 [6, 11]
5.78	5.11	6.01	4.82	5.66	5.16	0.11%	0.08%	0.02%	0.17%	–	–	–	–	CC(C)n1cnc(-c2ccccc2-c2csc(NC(=O)c3cccn3Cc3ccnc(F)c3)n2)c1 [Compound A169, 1-((2-fluoropyridin-4-yl)methyl)-N-(4-(2-(1-isopropyl-1H-imidazol-4-yl)phenyl)thiazol-2-yl)-1H-pyrrole-2-carboxamide]	2.2	7.13	–	–
–	5.09	–	4.71	–	–	2.47%	16.7%	46.1%	5.77%	5.98	6.90	5.91	< 4.60	C/C(=C\c1csc(NC(=O)c2cccn2Cc2ccncc2)n1)c1ccc(OC(F)(F)F)cn1 [Compound E5, (E)-1-(pyridin-4-ylmethyl)-N-(4-(2-(5-(trifluoromethoxy)pyridin-2-yl)prop-1-en-1-yl)thiazol-2-yl)-1H-pyrrole-2-carboxamide]	–	–	9.8	>199
< 4.60	< 4.60	5.36	< 4.60	< 4.60	< 4.60	6.93%	10%	13.2%	5.85%	–	–	–	–	CN1CCOC(/C=C/c2csc(NC(=O)c3cccn3Cc3ccncc3)n2)C1 (stereo not drawn) [Compound B6, (E)-N-(4-(2-(4-methylmorpholin-2-yl)vinyl)thiazol-2-yl)-1-(pyridin-4-ylmethyl)-1H-pyrrole-2-carboxamide]	5.7	>5.68	–	–
–	4.70	–	< 4.60	–	–	6.6%	22.7%	22.5%	26.7%	6.43	6.77	6.13	5.59	O=C(Nc1nc([C@H]2CCCN2c2ccccc2)cs1)c1cccn1CC1CCOCC1 [Compound C55, (R)-N-(4-(1-phenylpyrrolidin-2-yl)thiazol-2-yl)-1-((tetrahydro-2H-pyran-4-yl)methyl)-1H-pyrrole-2-carboxamide]	–	–	4.4	15.3
6.90	5.82	7.19	< 4.60	6.87	6.19	0.22%	18.3%	16%	1.29%	–	–	–	–	CC(=O)N1CCC(Oc2ccc(N3CCC[C@@H]3c3csc(NC(=O)c4cccn4Cc4ccnc(F)c4)n3)nc2)CC1 [Compound A154, (R)-N-(4-(1-(5-((1-acetylpiperidin-4-yl)oxy)pyridin-2-yl)pyrrolidin-2-yl)thiazol-2-yl)-1-((2-fluoropyridin-4-yl)methyl)-1H-pyrrole-2-carboxamide]	2.1	9.97	–	–

— patent US20230286973A1, “PROTEIN SECRETION INHIBITORS” (KEZAR LIFE SCIENCES, priority 2020, published 2023)
